Measured values published in publication PMC10552397 (Cell Communication and Signaling : CCS, 2023).
Where two headings read alike, the source gives them in different places.

Columns and labels:
HeLa GRASP55 KO cells [1] = assay: cells; conditions: Homo sapiens, read-out: IC50 value GRASP55 KO
Description: Cell viability was measured using the MTT (3-(4,5-dimethylthiazol-2-yl)-2,5-diphenyltetrazolium bromide) assay. HeLa cells were seeded in 96-well plates with a density of 5*10^3 cells/well. […] After the incubation time, 20 µL of a 5 mg/mL MTT stock solution (ROTH, Karlsruhe, Germany, #4022.3) were added to the cells and they were incubated at 37 °C and 5% CO2 in a humidified atmosphere for 30 min. Upon removal of the MTT-containing medium 100 µL DMSO per well were added for extraction of the formazan. Absorbance was measured at 570 nm and 650 nm (reference) with a microplate reader (SynergyMx, BioTek, Winooski, VT, USA). After subtraction of the reference value, the mean of the absorbance of the solvent control was set as 100% and the relative viability was calculated for each sample.
GRASP55 KO cells were generated using the CRISPR/Cas9 system developed by the Zhang lab [59]. Double-stranded DNA oligos (5´-[sequence]-3´, 3´-[sequence]-5´), encoding guide RNAs (gRNAs) against the target gene were cloned into the Bbsl restriction site of pSpCas9(BB)-2A-GFP (PX458) vector gifted from Feng Zhang (Addgene plasmid #48,138; http://n2t.net/addgene:48138; RRID:Addgene_48138). […]
All IC50 values were calculated using GraphPad Prism 7.01.

GRASP55 = GRASP55 (Homo sapiens, UniProt Q9H8Y8); assay: CETSA (immunoblot quantification of non-denatured GRASP55); assay type: binding; parameters: endogenous in cells; host or cells: HeLa wt cells; conditions: 100 nM, 6 h, HeLa wt, vs DMSO
Description: Adherent cells were washed in the dish once with DPBS and harvested by Trypsin–EDTA (0.25%, Thermo Fisher Scientific, Waltham, MA, USA, #25,200,056) treatment. After addition of 35 mL DPBS, the cells were pelleted by centrifugation (300 rcf, 5 min, 4 °C), and washed twice by re-suspending and pelleting using 45 mL and 1 mL DPBS, respectively, to remove excess trypsin and for transfer into pre-weighed 2 mL Eppendorf tubes to determine the cell pellet wet weights as quality check after centrifugation (300 rcf, 5 min, 4 °C) and complete removal of the supernatant. […]
After temperature treatment, samples were supplemented with lysis buffer (final concentrations: 0.36 U/µL benzonase, 1.5 mM MgCl2, 1 mM Na3VO4, 10 mM NaF, 2.5 mM Na4P2O7, 0.8% w/v NP-40) for 1 h on ice. […] The total protein concentration of the resulting cell extracts containing the fraction of soluble, non-denatured proteins was determined (Pierce 660 nm Protein Assay, BSA as standard). […] The two (37 °C or 50 °C) x ten (concentrations) x three (replicates) = 60 TPP-CCR samples and two (treatment and control) x ten (temperatures) x three (replicates) = 60 TPP-TR samples were analyzed by LC–MS/MS. GRASP55 was additionally quantified from the TPP-TR samples by immunoblotting as described in the respective section. […]

HeLa GRASP55 KO cells [2] = assay: Transmission electron microscopy of Golgi apparatus, HeLa GRASP55 KO; assay type: cell-based; conditions: 100 nM, 24 h, HeLa GRASP55 KO (also wt)
Description: HeLa wt and HeLa GRASP55 KO cells were seeded into 10 cm dishes. […] After treatment, cells were washed with Dulbecco´s phosphate-buffered saline (DPBS, Thermo Fisher Scientific, Waltham, MA, USA, #14,190,250) and then fixed using 2.5% glutaraldehyde and 4% paraformaldehyde in 0.1 M sodium cacodylate, pH 7.4 overnight at 4 °C. Then, cells were harvested with a cell scraper and centrifuged at 4,000 × g for 5 min. Cell pellets were washed twice with 0.1 M sodium cacodylate buffer, pH 7.2, then heated to 40 °C and embedded into 3% low melting agarose. The agarose was dissolved at 40 °C in a water bath and after aspiration of the supernatant a volume of approximately 10 µL was left, which was resuspended in agarose. After centrifugation at approximately 4,000 x g for 2 min, the samples were covered with 1% OsO4 in 0.1 M sodium cacodylate buffer for 60 min at RT. After washing two times with sodium cacodylate buffer for 10 min and twice with 70% EtOH for 15 min at RT, block contrast was applied using 1% uranyl acetate/1% phosphorotungstic acid in 70% EtOH (freshly prepared and filtered) for 1 h at RT. The samples were dehydrated in a graded ethanol series (90% EtOH, 96% EtOH, 100% EtOH) and embedded in SPURR epoxy resin (Serva, Heidelberg, Germany, #21,050). After polymerization at 70 °C for 24 h, 70 nm ultrathin sections were cut using an Ultracut EM UC7 (Leica, Wetzlar, Germany). […]

With `CCCCCC1=C/C(=C/c2[nH]c(-c3ccc[nH]3)cc2OC)N=C1C` [Prodigiosin, prodigiosin] the IC50 (HeLa GRASP55 KO cells [1]; 24 h) was 1420 nM, the IC50 (HeLa GRASP55 KO cells [1]; 72 h) was 83.3 nM and the “dif GRASP55 (CETSA), melting point difference” value (GRASP55) was 4.5. For the same molecule, the “Golgi apparatus morphology (TEM)” value (HeLa GRASP55 KO cells [2]) was “Severe structural changes of the Golgi apparatus”.
